Measured values from PubChem BioAssay (NCI).
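Each compound was tested at five concentrations against cells in 96-well plates for 48 hours. Abbreviation: GI50, concentration required for 50% inhibition of growth. TGI marks complete inhibition of growth.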

Columns and labels:
Experiment in all cases: NCI tumour cell line growth inhibition, 48 h
SF-268 CNS = tested on: SF-268 CNS
786-0 renal = tested on: 786-0 renal
U251 CNS = tested on: U251 CNS
SK-MEL-28 melanoma = tested on: SK-MEL-28 melanoma
SK-MEL-5 melanoma = tested on: SK-MEL-5 melanoma
SR leukemia = tested on: SR leukemia
HOP-92 NSCLC = tested on: HOP-92 NSCLC
CCRF-CEM leukemia = tested on: CCRF-CEM leukemia
MCF7 breast = tested on: MCF7 breast
SNB-19 CNS = tested on: SNB-19 CNS

| SMILES | GI50 (SF-268 CNS) [µM] | TGI (SF-268 CNS) [µM] | GI50 (786-0 renal) [µM] | TGI (786-0 renal) [µM] | GI50 (U251 CNS) [µM] | TGI (U251 CNS) [µM] | GI50 (SK-MEL-28 melanoma) [µM] | TGI (SK-MEL-28 melanoma) [µM] | GI50 (SK-MEL-5 melanoma) [µM] | TGI (SK-MEL-5 melanoma) [µM] | GI50 (SR leukemia) [µM] | TGI (SR leukemia) [µM] | GI50 (HOP-92 NSCLC) [µM] | TGI (HOP-92 NSCLC) [µM] | GI50 (CCRF-CEM leukemia) [µM] | TGI (CCRF-CEM leukemia) [µM] | GI50 (MCF7 breast) [µM] | TGI (MCF7 breast) [µM] | GI50 (SNB-19 CNS) [µM] | TGI (SNB-19 CNS) [µM] |
| --- | --- | --- | --- | --- | --- | --- | --- | --- | --- | --- | --- | --- | --- | --- | --- | --- | --- | --- | --- | --- |
| CSc1ccc(C(=O)/C=C/c2ccc(F)cc2)cc1 | 75.9 | > 100 | > 100 | > 100 | 32.9 | > 100 | 69.3 | > 100 | 75 | > 100 | 25.7 | 51.5 | 75.9 | > 100 | 25.5 | 82.6 | 28.5 | 70 | > 100 | > 100 |
| CCN1CCN(c2nc(C)cc(N(CCCNc3ccnc4cc(Cl)ccc34)Cc3ccco3)n2)CC1 | 4.31 | 20.6 | 1.85 | 4.15 | 2.41 | 6.26 | 1.82 | 3.6 | 1.81 | 3.3 | 2.08 | 5.73 | 2.26 | 6.72 | 3.51 | 12.2 | 2.98 | 14.8 | 4.78 | 17.5 |
| CC1(C)CC(O)CCCCCCOc2c(CN)cccc2NC(=O)c2nc(cnc2N)-c2ccc(cc2)S1(=O)=O (centres undefined) | 1.27 | 3.44 | 0.0278 | 1.97 | 0.382 | 1.86 | 1.13 | 2.48 | 1.5 | 2.89 | < 0.01 | 0.469 | 2.72 | 5.82 | < 0.01 | 5.53 | < 0.01 | 1.81 | 1.66 | 4.46 |
| COc1ccc(Cn2cc3c(c2-c2ccccc2)CCc2cncnc2-3)cc1 | 9.63 | 22.2 | 10.1 | 38.5 | 5.47 | 18 | 8.71 | 21.6 | 3.72 | 14.2 | 1.46 | 6.7 | 10.8 | 28.5 | 3.99 | 18.3 | 4.66 | 18.9 | 10.2 | 25 |
| COc1ccc(Cn2c3c(c4c(O)cccc42)C(=O)c2ccccc2-3)cc1 | 8.75 | 29.1 | 4.02 | 16.7 | 14.1 | 27.1 | 11.6 | 25 | 7.76 | 20.6 | 13.9 | 30.5 | 0.233 | 4.23 | 73.6 | > 100 | 10.7 | 28.1 | 6.05 | 23.4 |
| CCCCCCCCCCC(CN(CC)CC)C(O)c1ccccc1 (centres undefined) | 1.94 | 3.87 | 1.67 | 3.15 | 1.86 | 3.56 | 1.7 | 3.16 | 1.48 | 2.88 | 2.44 | 6.23 | 1.27 | 2.98 | 1.82 | 4.89 | 1.63 | 3.15 | 1.86 | 3.77 |
| CCOC(CN(C)C(=O)OCC(Cl)(Cl)Cl)OCC | – | > 100 | – | > 100 | – | > 100 | – | > 100 | – | > 100 | – | > 100 | – | > 100 | – | > 100 | – | > 100 | – | > 100 |
| Cc1ccc2oc(=O)cc(C3c4ccc([nH]4)C(c4cc(=O)oc5ccc(C)cc45)c4ccc([nH]4)C(c4cc(=O)oc5ccc(C)cc45)c4ccc([nH]4)C(c4cc(=O)oc5ccc(C)cc45)c4ccc3[nH]4)c2c1 (centres undefined) | 0.0561 | 1.47 | 0.0288 | 0.0937 | 0.0369 | 1.27 | 0.075 | 2.98 | 0.032 | 0.127 | 0.0417 | – | 0.106 | 1.07 | 0.0359 | > 100 | 0.0394 | 1.95 | 0.0394 | 3.45 |
